Reference: patent publication US6610270B1, “In vivo determination of metabolic function for use in therapy management” (Xanthus Life Sciences, Inc., priority 1998, dated 2003)
Values belong to the compound of their own block, whether it stands above or below them.

Columns and labels:
[1] = system: N-acetyl transferase (NAT); experiment: NAT metaprobe 13C recovery in urinary glucosamine fraction; format: in vivo, Sprague-Dawley rats; conditions: 5 mg/kg by gastric intubation, 24 hour urine, bile acid glucosamine fraction
[2] = system: N-acetyl transferase (NAT); experiment: NAT metaprobe 13C recovery in human urine; format: in vivo
Description: The tracers were ingested each time with 100 ml of a 10% aqueous solution of high fructose corn syrup. Urine samples were collected at 12, 24 and 36 hours. […] The analysis of each urine sampling interval was carried out in triplicate and the variation among replicates fell within 15%. […] Also, since aspartyl-N-acetyl-glucosamine pyranoside is rapidly synthesized and subsequently turned over by lysozomes, its rate of appearance in plasma can be determined, along with the plasma rate of appearance of N-acetylglucosamine, at shorter intervals post dosing. Thus, the MRI2 index could be computed within reach of the two-hour preferred sampling time frame for the practicable implementation of diagnostic procedures with metaprobes.

[3] = system: glutamine-fructose-6-phosphate aminotransferase (GFAT); conditions: rat, in vivo
[4] = target: T1, Prolyl oligopeptidase (PO) (Homo sapiens, UniProt P48147); experiment: prolyl oligopeptidase metaprobe hydrolysis in bronchoalveolar lavage fluid; format: biochemical; conditions: Human BAL
T1 sequence (P48147 1-710): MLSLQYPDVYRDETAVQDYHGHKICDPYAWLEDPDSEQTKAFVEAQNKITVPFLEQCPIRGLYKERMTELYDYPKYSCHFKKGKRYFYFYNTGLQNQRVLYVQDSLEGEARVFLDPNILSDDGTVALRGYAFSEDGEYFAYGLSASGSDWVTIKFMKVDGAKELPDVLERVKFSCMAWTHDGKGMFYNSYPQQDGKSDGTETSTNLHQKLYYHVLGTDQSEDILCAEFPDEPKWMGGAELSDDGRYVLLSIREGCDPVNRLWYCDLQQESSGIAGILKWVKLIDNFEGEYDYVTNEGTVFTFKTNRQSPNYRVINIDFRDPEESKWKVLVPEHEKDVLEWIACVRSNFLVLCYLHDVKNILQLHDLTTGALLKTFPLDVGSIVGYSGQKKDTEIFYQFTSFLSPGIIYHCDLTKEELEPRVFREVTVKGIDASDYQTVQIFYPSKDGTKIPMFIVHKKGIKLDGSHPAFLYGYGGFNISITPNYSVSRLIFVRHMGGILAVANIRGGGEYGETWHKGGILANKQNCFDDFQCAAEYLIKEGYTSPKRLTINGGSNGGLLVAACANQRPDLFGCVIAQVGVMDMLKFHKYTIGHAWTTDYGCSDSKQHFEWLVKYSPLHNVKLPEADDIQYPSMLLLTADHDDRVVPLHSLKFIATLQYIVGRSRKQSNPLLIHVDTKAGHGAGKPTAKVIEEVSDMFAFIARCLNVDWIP

[5] = target: T2, Prolyl oligopeptidase (PO) (Rattus norvegicus, UniProt O70196); experiment: prolyl oligopeptidase metaprobe hydrolysis in rat plasma, brain and lung preparations; format: biochemical
T2 sequence (O70196 1-710): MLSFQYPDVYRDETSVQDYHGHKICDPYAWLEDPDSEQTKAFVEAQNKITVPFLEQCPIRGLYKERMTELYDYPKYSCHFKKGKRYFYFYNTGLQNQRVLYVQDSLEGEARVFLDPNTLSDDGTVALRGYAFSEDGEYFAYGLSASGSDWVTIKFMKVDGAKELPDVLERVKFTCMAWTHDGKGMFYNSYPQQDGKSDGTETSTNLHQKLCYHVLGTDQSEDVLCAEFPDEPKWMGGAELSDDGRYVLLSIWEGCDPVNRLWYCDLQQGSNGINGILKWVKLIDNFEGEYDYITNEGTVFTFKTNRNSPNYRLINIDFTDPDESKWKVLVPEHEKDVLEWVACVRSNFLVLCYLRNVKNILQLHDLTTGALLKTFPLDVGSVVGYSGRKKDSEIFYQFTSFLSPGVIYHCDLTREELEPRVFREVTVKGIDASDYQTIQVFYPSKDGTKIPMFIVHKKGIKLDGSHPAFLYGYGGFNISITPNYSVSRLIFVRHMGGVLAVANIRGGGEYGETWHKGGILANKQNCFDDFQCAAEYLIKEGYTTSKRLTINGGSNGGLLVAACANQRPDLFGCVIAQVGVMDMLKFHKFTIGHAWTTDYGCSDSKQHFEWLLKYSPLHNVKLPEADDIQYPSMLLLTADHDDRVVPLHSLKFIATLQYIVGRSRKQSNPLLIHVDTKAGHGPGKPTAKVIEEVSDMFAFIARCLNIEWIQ

percent recovery of 13C [1]: 0.15+/−0.073%
13C % Dose ([2]; time point 12 hr): .089 % Dose
13C % Dose ([2]; time point 24 hr): .189 % Dose
13C % Dose ([2]; time point 36 hr): .213 % Dose
SMILES: CC(=O)N[C@@H]1[C@@H](O)[C@H](O)[C@@H](CO)O[13CH]1O (some centres unmarked) [N-acetyl-1-^13C-glucosamine]

normalized 15N/13C GFAT-MRI1 [3]: 24
SMILES: CC(=O)NC(CCC([15NH2])=O)C(=O)O (centres unmarked) [N-acetyl-5-^15N-glutamine]

% Dose metabolized ([4]; Control, two hour incubation at 37° C.): 30 ± 4 % Dose
% Dose metabolized ([4]; Test sample, ARDS): 54 ± 13 % Dose
% Dose metabolized ([5]; Rat Brain homogenate (acetone powder), Control): 44 ± 8 % Dose
% Dose metabolized ([5]; Rat Lung homogenate (acetone powder), Control): 24 ± 12 % Dose
% Dose metabolized ([5]; Rat Plasma, Control): 2 ± 4 % Dose
% Dose metabolized ([5]; Rat Plasma, Test sample, Sepsis): 8 ± 5 % Dose
SMILES: CCO[13C](=O)[C@H](CC)NC(=O)[C@@H]1CCCN1C(=O)CNC(=O)OCc1ccccc1 [Prolyl oligopeptidase Metaprobe, N-carbobenzyloxy-glycyl-L-prolyl-L-2-aminobutyric [1-^13C] acid ethyl ester]
